Converted amounts (≈) assume the structure as drawn.
Experiments:
PCR'd MACS 1555 target = assay: Inhibition of PCR by non-psoralen compounds in the absence of light; format: biochemical
Text: The compounds tested were the following: 1) ethidium bromide (a Phenanthridine, see Table 1), 2) xylene cylanol (an Organic Dye, see Table 1), 3) bromphenol blue (an Organic Dye, see Table 1), 4) coumarin and 5) methylene blue (a Phenazathionium Salt, see Table 1).
A separate experiment examined PCR inhibition with coumarin and methylene blue in the absence of light. The following concentrations of methylene blue were tried: 4.3×10^−2, 4.3×10^−3, 4.3×10^−4 and 4.3×10^−5 M. Concentrations of coumarin tried included: 7×10^−3, 7×10^−4, 7×10^−5 and 7×10^−6 M. Compound was added to PCR tube containing α-^32P-dCTP and target (1 μl […].; PCR'd MACS 1555 per assay-point). PCR was carried out for 30×cycles. Samples were loaded onto a 12%/8 M urea gel.

Taq polymerase = Taq polymerase (Thermus aquaticus, UniProt P19821); assay: Taq primer extension of 71-mer after random addition of compound or photoproduct; format: biochemical; details: photobiotin 6×10^−6 M
Text: In this experiment, the ability of AMIP, AMDMIP and MIF to block replication of 71-mer is investigated by randomly adding each compound to the 71-mer. Of course, addition may only be random in the sense that one or more adducts may be formed with any one strand of nucleic acid. The actual placement of the isopsoralen may be governed by preferential binding at particular sites (e.g. A:T). In addition to blockage by random adducts, photoproducts of the various isopsoralens may be providing an inhibitory effect. No attempt to separate the effects of photoproduct from the effects of covalent adducts on the 71-mer template was made in this series of experiments.
In these experiments, the 71-mer template (10^−9 M) was primed with ^32P-SK-39 (10^−8) and extended with Taq polymerase in a total volume of […]. The dNTP concentration was 200 μM. In the control samples, the 71-mer, the primer, and the dNTPs were mixed in Taq buffer in a volume of 18 p1. These samples were initially denatured at 95° C. for 5 minutes, followed by equilibration at 55° C. for 3 minutes. Taq enzyme was then added (0.5 units) and the extension reaction was carried out for 5 minutes at 55° C. The reaction was stopped by making the solution 10 mM in EDTA. In another set of samples, the 71-mer in 10 μl was mixed with either AMIP (200 μg/ml), AMDMIP (200 μg/ml), or MIP (60 μg/ml). Half of these samples were irradiated for 15 minutes on the CE-I device at 25° C. The other half was kept in the dark as controls. These samples were then mixed with the primer and dNTPs as before, and were subjected to the same thermal profile and extension reactions as the samples that were described earlier. The results were examined by PAGE. The extended product bands were identified by autoradiography, excised and counted (data not shown). […]
71-mer was made up in Taq buffer. Samples were prepared as follows: 1) dark control samples were not subjected to activating light; 2) 10 μl samples of the 71-mer (2×10^−9 M) were irradiated in the presence of 200 μg/ml AMDMIP, and 3) 10 μl samples of a 200 μg/ml solution of AMDMIP were irradiated in the absence of the 71-mer target. All irradiations were carried out with the CE-I device at 25° C. After preparing the above samples, unirradiated AMDMIP was added to one set of the dark control samples. Another set of dark controls received irradiated AMDMIP. ^32P-SK-39 primer and dNTPs were then added to all samples and the volume was adjusted to 18 μl. These samples were denatured at 95° C. for 5 minutes, followed by equilibration at 55° C. for 3 minutes. Taq polymerase was then added and the extension reaction was carried out for 5 minutes. The reaction was stopped by bringing the samples to 10 mM in EDTA. The final concentrations of all reagents during the extension reactions were: […]

HIV 115-mer = assay: PCR with pre-irradiated photobiotin or monoazide ethidium chloride; format: biochemical
Experimental: In this experiment, photobiotin and monoazide ethidium chloride were tested as PCR sterilization reagents. The temporal steps were performed to examine photoproduct effects (if any). Solutions of photobiotin and monoazide ethidium chloride were made up in 1×Taq buffer. […] Each compound solution was divided into two parts: One part was irradiated under a GE sunlamp through a pyrex filter (300nm cut-off); the other half was irradiated under a GE sunlamp through a 2.9 M NaNO2 liquid filter (400 nm cut-off). Irradiations were carried out on ice for 15 minutes. After irradiation, aliquots of each tube were carried over into tubes containing PCR reagents and target (HIV 115-mer); PCR was then carried out for 30 cycles in the presence of α-^32P-dCTP. After amplification aliquots were analyzed on 12% acrylamide/8M urea gels.

[1] = tested on: DNA polymerase I from E. coli. B; details: covalently bound compound; cited from earlier work
Taq I DNA polymerase = assay: Primer extension on site-specific monoadducted 71-mer, Taq polymerase; format: biochemical, Thermus aquaticus; details: 55° C., single extension
Experimental: In this experiment, monoadducted 71-mers (as well as unmodified 71-mers) were used in template-dependent enzymatic extension. AMIP, AMDMIP, and MIP 71-mer monoadducts were made as in Example 42. Extension was carried out as in Example 43 except that in this experiment, Taq I DNA polymerase, a thermostable DNA polymerase isolated from Thermus aquaticus (Stratagene, Inc., La Jolla, Calif.) was assessed for its ability to read past isopsoralens.
The reaction mixture was in 80 μl total volume and comprised 1×Taq buffer, 200 μM each of dNTP's, 0.05 units of Taq per μl of reaction volume; 1×10^−9 M in 71-mer MA; 1×10^−8 M in ^32P-labelled SK-39. Each reaction was set up with everything except Taq polymerase. The samples were initially heated to 95° C. for 5 mins, then incubated at 55° C. for 3 mins. The extension reaction was initiated by addition of Tas polymerase. At the indicated time points (0.5, 1.0, 5.0 mins), 20 μl of the reaction mix was removed to a tube containing 1 μl of 0.5 M EDTA to stop the reaction. All products were analyzed on a 20% polyacrylamide, 7 M urea gel followed by autoradiography.
This experiment investigated whether blocking of Tag polymerase by monoadducts is complete or whether monoadducts can be bypassed by the enzyme. In order to view the process of bypass syrthesis, it is necessary to cycle the extension reaction of the primer with the 71-mer templates. Cycling in this case consists of mixing the primer with the 71-mer template, adding Taq polymerase and appropriate reagents, extending, heating to induce strand separation, reannealing of the primer to the 71-mer template, extending again, and subsequent stand separation. This process can be repeated as necessary. During this process, only the complement of the 71-mer template is being synthesized. It is accumulating in a linear fashion with the number of thermal cycles (in contrast to PCR where both strands are being synthesized and accumulate geometrically).
The templates and reaction conditions were as in Example 44 above except that three samples were used for each monoadduct and each sample was tested under different conditions:
Samples (1): one sample for each monoadduct was used to carry out extension at 55° C. as in Example 43;
Samples (2): one sample for each monoadduct was used to carry out extension by the following series of steps: denaturing at 95° C.; incubating for 30 seconds at 55° C.; adding Taq polymerase for 3 minutes at 55° C.; cooling the reaction for 1 minute at 7° C.; stopping the reaction with EDTA for one minute at 95° C.
Samples (3): one sample for each monoadduct was used to carry out extension by repeating the following series of steps nine times: denaturing at 95° C.; incubating for 30 seconds at 55° C.; adding Taq polymerase for 3 minutes at 55° C.; cooling the reaction for 1 minute at 7° C. At the end, the reaction is stopped with EDTA for one minute at 95° C.
To investigate this question further, a new 5-MIP monoadducted 71-mer was prepared by repurification of the HPLC purified 5-MIP ronoadducted 15-mer by PAGE. In this way, more of the non-monoadducted 15-mer was removed prior to ligation. The purified 71-mer was then used as template in an extension experiment as described in Example 45. After 10 cycles, there was still evidence of extension product (FIG. 34).
Monoadducted 71-mer was constructed as described, but for HMT. Extension was carried out and analyzed as before on PAGE. […] Full length 71-mer is not made and a shorter strand corresponding to the position of the HMT adduct was made.

E. coli polymerase I = details: cited from earlier work
[2] = Solubility of photoreactive compounds in 1×TE; format: physicochemical; details: excess compound heated 50-70° C., stirred at room temperature, filtered, optical density
Experimental: The solubilities of AMIP, AMDMIP, DMIP, MIP and isopsoralen (IP) were determined experimentally according to the scheme set forth in FIG. 5. To perform the solubility measurement, it was first necessary to establish known optical densities for a 1 μg/ml solution of each compound. These were determined by preparing either ethanolic or aqueous stocks of each compound at known concentrations in 1×TE, then measuring the optical density of each solution. From this information, the absorption of a 1 μg/ml solution was computed. Alternatively, the extinction coefficient may be thus determined and used in the same fashion. In this manner, the following absorption data was collected:
Following this step, undissolved compound was removed by filtration using a 0.2 u nylon-66 syringe filter (Arco LC13; Gelman). The concentration of the remaining soluble compound was then determined by measuring the optical density of the filtrate and computing the solubility from the known optical density of a 1 μg/ml solution of that compound. The solubility of the compounds was thus determined to be as follows: […]

[3] = as reported by Dall'Acqua et al.; cited from earlier work
human placental DNA = assay: PCR in presence of AMDMIP and DMSO co-solvent; format: biochemical; details: no AMDMIP, 0% DMSO gave 139,000
Experimental: In this example, the effect of DMSO on PCR amplification in the presence of high concentrations of sterilizing compound (AMDMIP) was investigated. Samples were prepared for PCR which contained 1 μg of human placental DNA either with or without (unirradiated) AMDMIP (200 μg/ml). The samples were amplified 30 cycles under standard PCR conditions in the presence of 0%, 1%, 5% or 10% DMSO. The reaction mix contained α-^32P-dCTP. Following amplification, the samples were analyzed by PAGE (data not shown).

Taq polymerase, sequence (P19821 whole entry): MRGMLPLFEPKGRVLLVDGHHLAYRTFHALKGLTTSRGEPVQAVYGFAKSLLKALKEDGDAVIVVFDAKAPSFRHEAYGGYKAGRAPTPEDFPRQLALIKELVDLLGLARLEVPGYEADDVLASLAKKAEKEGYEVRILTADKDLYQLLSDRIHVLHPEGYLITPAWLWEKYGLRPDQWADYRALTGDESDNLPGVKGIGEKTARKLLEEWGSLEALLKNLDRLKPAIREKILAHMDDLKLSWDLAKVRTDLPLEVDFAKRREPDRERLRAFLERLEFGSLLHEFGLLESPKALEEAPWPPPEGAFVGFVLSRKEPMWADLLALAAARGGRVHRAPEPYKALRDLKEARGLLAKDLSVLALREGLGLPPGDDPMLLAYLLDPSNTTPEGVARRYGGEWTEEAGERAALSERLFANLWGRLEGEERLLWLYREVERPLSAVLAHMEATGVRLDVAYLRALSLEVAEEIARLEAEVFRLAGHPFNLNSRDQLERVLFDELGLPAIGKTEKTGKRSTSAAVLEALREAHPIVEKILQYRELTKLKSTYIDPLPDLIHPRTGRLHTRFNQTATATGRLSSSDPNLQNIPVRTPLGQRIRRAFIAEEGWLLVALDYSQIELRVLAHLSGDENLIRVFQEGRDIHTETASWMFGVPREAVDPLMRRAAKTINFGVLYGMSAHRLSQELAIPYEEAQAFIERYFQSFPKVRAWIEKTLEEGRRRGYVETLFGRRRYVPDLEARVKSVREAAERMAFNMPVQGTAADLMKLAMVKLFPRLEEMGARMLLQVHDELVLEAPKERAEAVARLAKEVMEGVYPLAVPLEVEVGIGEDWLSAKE

Which “inhibition of PCR in the absence of light” value (PCR'd MACS 1555 target; dark control, coumarin 7×10^−3 to 7×10^−6 M) does the source give for O=c1ccc2ccccc2o1 [Coumarin, coumarin] here?
Its value is “did not inhibit PCR at any of the concentrations tested”.

Which “extension of 71-mer, dark control” value (Taq polymerase; monoazide ethidium 1.4×10^−3 M, kept in the dark) does the source give for CC[n+]1c(-c2ccccc2)c2cc(N=[N+]=[N-])ccc2c2ccc(N)cc21 [monoazide ethidium chloride, reference compound] here?
The value was “inhibition of extension”.

What about the “inhibition of PCR by pre-irradiated compound” value (HIV 115-mer; 3×10^−6 M to 3×10^−10 M, GE sunlamp 15 minutes on ice, 30 cycles) of the same compound?
Its value is “does not inhibit PCR”.

For COc1c2occc2cc2ccc(=O)oc12 [Compound 8-MOP, 8-methoxypsoralen], which “loss of template activity of modified DNA” value [1] is on record?
Its value is 97%.

With CN(C)c1ccc2nc3ccc(=[N+](C)C)cc-3sc2c1 [methylene blue] as the compound, how does the “concentrations that inhibited PCR in the absence of light” value (PCR'd MACS 1555 target; tested 4.3×10^−2 to 4.3×10^−5 M, 30 cycles) read?
Its value is “above 4.3×10^−5 M”.

Which “extension of 71-mer after irradiation with compound” value (Taq polymerase; GE sunlamp 15 minutes on ice) does the source give for CN(CCCNC(=O)CCCC[C@@H]1SC[C@@H]2NC(=O)N[C@@H]21)CCCNc1ccc(N=[N+]=[N-])cc1[N+](=O)[O-] [photobiotin, reference compound] here?
Its value is “inhibition only after irradiation”.

What about the “concentration of pre-irradiated compound that shut down PCR” value (HIV 115-mer; range 7×10^−4 M to 7×10^−10 M, 115-mer amplified at all lower concentrations) of the same compound?
The value was 700 µM.

What does the source list for Cc1oc2c(C)c3oc(=O)cc(C)c3cc2c1CO [HMT, 4′-hydroxymethyl-4,5′,8-trimethylpsoralen]?
Taq polymerase extension on 71-mer monoadduct template (Taq I DNA polymerase): stop Tag polymerase; inhibition of polymerase by covalently bound monoadducts (E. coli polymerase I; nick-translating a double-stranded template): not inhibited; inhibition of polymerase by monoadducts (E. coli polymerase I; single-stranded bacteriophage DNA template): inhibited

Which solubility ([2]; 1×TE buffer, aqueous buffer, thermodynamic from solid) does the source give for O=c1ccc2ccc3occc3c2o1 [IP, isopsoralen, reference compound] here?
The solubility was 2 µg/mL (≈ 10.7 µM).

With Cc1cc2c(ccc3c(C)cc(=O)oc32)o1 [DMIP, 4,5′-Dimethylisopsoralen] as the compound, how does the maximum aqueous solubility [3] read?
Its maximum aqueous solubility is 8 µg/mL.

What about the “Solubility in 1 × TE” value [2] of the same compound?
Its value is “nd** (nd = not detectable (solubility was less than 1 μg/ml))”.

With COc1cc(OC)c2ccc(=O)oc2c1 [DMC, 5,7-dimethoxycoumarin] as the compound, how does the “loss of template activity of modified DNA” value [1] read?
The value was 50%.

With C[S+](C)[O-] [DMSO, dimethyl sulfoxide] as the compound, how does the “product band CPM (average of duplicate samples)” value (“product band CPM” below) (human placental DNA; 1% DMSO) read?
The value was 137,000 CPM.

What about the “product band CPM” value (human placental DNA; 5% DMSO) of the same compound?
Its value is 94,000 CPM.

What about the “product band CPM” value (human placental DNA; 10% DMSO) of the same compound?
Its value is 76,000 CPM.

— patent publication US6680025B2, “Device and method for photoactivation” (Cerus Corporation, priority 1989, dated 2004)
